Experimental findings from patent US20150299188A1, “HETEROCYCLIC COMPOUND” (priority 2012, published 2015) are described below.

The assay concerns FLAP (5-lipoxygenase activating protein). Description: In vitro binding test: displacement of [3H]-7-chloro-3-(5-((3-fluoropyridin-2-yl)methoxy)-2-methylphenyl)-3,4-dihydroquinazolin-2(1H)-one from Sf9 microsome fractions. On the set-up: species or system human and mouse. Particulars: Sf9 microsome fractions expressing FLAP; 100% = radioligand binding with 10 μM sodium 3-(3-(tert-butylsulfanyl)-1-(4-chlorobenzyl)-5-isopropyl-1H-indol-2-yl)-2,2-dimethylpropanoate, 0% = DMSO; test compound concentration not given. The method, boiled down: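 Sf9 microsomes expressing human or mouse FLAP (2 μg/mL) preincubated with compound 10 min at room temperature, then 120 nM tritiated quinazolinone ligand added for 60 min; buffer 100 mM Tris-HCl pH 7.5 with NaCl, EDTA, DTT, glycerol, Tween20. Bound ligand filtered and counted by scintillation; 10 μM indole propanoate defines 100% inhibition, DMSO 0%.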
Background: Displacement assays read how much labelled ligand stays bound in the presence of the test substance.
On to `CC(C)(O)CNC(=O)c1ccc(OCc2c(F)cccc2F)cc1N1Cc2ccccc2NC1=O` [Example 190, 4-((2,6-difluorobenzyl)oxy)-N-(2-hydroxy-2-methylpropyl)-2-(2-oxo-1,4-dihydroquinazolin-3(2H)-yl)benzamide], for which the “inhibitory rate (%)” value stood at 55%.

With `O=C(NCc1ccccn1)c1ccc(OCc2c(F)cccc2F)cc1N1Cc2ccccc2NC1=O` [Example 192, 4-((2,6-difluorobenzyl)oxy)-2-(2-oxo-1,4-dihydroquinazolin-3(2H)-yl)-N-(pyridin-2-ylmethyl)benzamide], the “inhibitory rate (%)” value stood at 51%.

`COCc1ccc2c(c1)NC(=O)N(c1cc(OCc3c(F)cccc3F)ccc1C)C2` [Example 193, 3-(5-((2,6-difluorobenzyl)oxy)-2-methylphenyl)-7-(methoxymethyl)-3,4-dihydroquinazolin-2(1H)-one]: the “inhibitory rate (%)” value is 97%.

On to `Cc1ccc(OCc2c(F)cccc2F)cc1N1Cc2cccc(CO)c2NC1=O` [Example 194, 3-(5-((2,6-difluorobenzyl)oxy)-2-methylphenyl)-8-(hydroxymethyl)-3,4-dihydroquinazolin-2(1H)-one], for which the “inhibitory rate (%)” value is listed as 71%.

Regarding `Cc1ccc(OCc2c(F)cccc2F)cc1N1Cc2c(CO)cccc2NC1=O` [Example 195, 3-(5-((2,6-difluorobenzyl)oxy)-2-methylphenyl)-5-(hydroxymethyl)-3,4-dihydroquinazolin-2(1H)-one], the “inhibitory rate (%)” value worked out at 97%.

For the molecule `Cc1ccc(OCc2c(F)cccc2F)cc1N1Cc2ccc(C(N)=O)cc2NC1=O` [Example 196, 3-(5-((2,6-difluorobenzyl)oxy)-2-methylphenyl)-2-oxo-1,2,3,4-tetrahydroquinazoline-7-carboxamide], the “inhibitory rate (%)” value amounted to 97%.

`Cc1ccc(OCc2c(F)cccc2F)cc1N1Cc2ccc(C(=O)NCCO)cc2NC1=O` [Example 197, 3-(5-((2,6-difluorobenzyl)oxy)-2-methylphenyl)-N-(2-hydroxyethyl)-2-oxo-1,2,3,4-tetrahydroquinazoline-7-carboxamide]: the “inhibitory rate (%)” value was determined as 101%.

Regarding `COC(=O)c1ccc2c(c1)NC(=O)N(c1cc(OCc3cccc(F)c3F)ccc1C)C2` [Example 198, methyl 3-(5-((2,3-difluorobenzyl)oxy)-2-methylphenyl)-2-oxo-1,2,3,4-tetrahydroquinazoline-7-carboxylate], the “inhibitory rate (%)” value was determined as 94%.

Regarding `COC(=O)c1ccc2c(c1)NC(=O)N(c1cc(OCc3cc(F)ccc3F)ccc1C)C2` [Example 199, methyl 3-(5-((2,5-difluorobenzyl)oxy)-2-methylphenyl)-2-oxo-1,2,3,4-tetrahydroquinazoline-7-carboxylate], the “inhibitory rate (%)” value turned out to be 60%.

Regarding `COC(=O)c1ccc2c(c1)NC(=O)N(c1cc(OCc3ccc(F)cc3F)ccc1C)C2` [Example 200, methyl 3-(5-((2,4-difluorobenzyl)oxy)-2-methylphenyl)-2-oxo-1,2,3,4-tetrahydroquinazoline-7-carboxylate], the “inhibitory rate (%)” value was found to be 100%.

Consider `Cc1ccc(OCc2ccc(F)cc2F)cc1N1Cc2ccc(C(C)(C)O)cc2NC1=O` [Example 201, 3-(5-((2,4-difluorobenzyl)oxy)-2-methylphenyl)-7-(2-hydroxypropan-2-yl)-3,4-dihydroquinazolin-2(1H)-one], for which the “inhibitory rate (%)” value is 104%.

Consider `Cc1ccc(OCc2c(F)cccc2F)cc1N1Cc2c(cccc2C(C)(C)O)NC1=O` [Example 202, 3-(5-((2,6-difluorobenzyl)oxy)-2-methylphenyl)-5-(2-hydroxypropan-2-yl)-3,4-dihydroquinazolin-2(1H)-one], for which the “inhibitory rate (%)” value is given as 72%.

Turning to `Cc1ccc(OCc2cccc(F)c2F)cc1N1Cc2ccc(C(C)(C)O)cc2NC1=O` [Example 203, 3-(5-((2,3-difluorobenzyl)oxy)-2-methylphenyl)-7-(2-hydroxypropan-2-yl)-3,4-dihydroquinazolin-2(1H)-one], the “inhibitory rate (%)” value was 81%.

For `Cc1ccc(OCc2c(F)cccc2F)cc1N1Cc2ccc(C#N)cc2NC1=O` [Example 204, 3-(5-((2,6-difluorobenzyl)oxy)-2-methylphenyl)-2-oxo-1,2,3,4-tetrahydroquinazoline-7-carbonitrile], the “inhibitory rate (%)” value is 103%.

As for `Cc1ccc(OCc2c(F)cccc2F)cc1N1Cc2ccc(C(=O)N3CCCC(O)C3)cc2NC1=O` (stereo not drawn) [Example 205, 3-(5-((2,6-difluorobenzyl)oxy)-2-methylphenyl)-7-((3-hydroxypiperidin-1-yl)carbonyl)-3,4-dihydroquinazolin-2(1H)-one], the “inhibitory rate (%)” value worked out at 77%.

For `Cc1ccc(OCc2c(F)cccc2F)cc1N1Cc2ccc(CN)cc2NC1=O` [Example 206, 7-(aminomethyl)-3-(5-((2,6-difluorobenzyl)oxy)-2-methylphenyl)-3,4-dihydroquinazolin-2(1H)-one], the “inhibitory rate (%)” value was determined as 81%.

On to `Cc1ccc(OCc2c(F)cccc2F)cc1N1Cc2ccc(C(=O)NC(C)(C)C(=O)O)cc2NC1=O` [Example 207, N-((3-(5-((2,6-difluorobenzyl)oxy)-2-methylphenyl)-2-oxo-1,2,3,4-tetrahydroquinazolin-7-yl)carbonyl)-2-methylalanine], for which the “inhibitory rate (%)” value is listed as 87%.

In the case of `Cc1ccc(OCc2c(F)cccc2F)cc1N1Cc2ccc(-c3noc(=O)[nH]3)cc2NC1=O` [Example 208, 3-(5-((2,6-difluorobenzyl)oxy)-2-methylphenyl)-7-(5-oxo-4,5-dihydro-1,2,4-oxadiazol-3-yl)-3,4-dihydroquinazolin-2(1H)-one], the “inhibitory rate (%)” value is given as 96%.

Turning to `Cc1ccc(OCc2c(F)cccc2F)cc1N1Cc2ccc(C(=O)NS(C)(=O)=O)cc2NC1=O` [Example 209, 3-(5-((2,6-difluorobenzyl)oxy)-2-methylphenyl)-N-(methylsulfonyl)-2-oxo-1,2,3,4-tetrahydroquinazoline-7-carboxamide], the “inhibitory rate (%)” value was found to be 102%.

As to `Cc1ccc(OCc2c(F)cccc2F)cc1N1Cc2ccc(C3=NC(C)(C)C(=O)O3)cc2NC1=O` [Example 210, 3-(5-((2,6-difluorobenzyl)oxy)-2-methylphenyl)-7-(4,4-dimethyl-5-oxo-4,5-dihydro-1,3-oxazol-2-yl)-3,4-dihydroquinazolin-2(1H)-one], the “inhibitory rate (%)” value came to 96%.

Turning to `COC(=O)c1ccc2c(c1)NC(=O)N(c1cc(OCc3csc(C)n3)ccc1C)C2` [Example 211, methyl 3-(2-methyl-5-((2-methyl-1,3-thiazol-4-yl)methoxy)phenyl)-2-oxo-1,2,3,4-tetrahydroquinazoline-7-carboxylate], the “inhibitory rate (%)” value is on record as 86%.

`O=C1Nc2ccccc2CN1c1cc(OCc2ncccc2F)ccc1Br` [Example 212, 3-(2-bromo-5-((3-fluoropyridin-2-yl)methoxy)phenyl)-3,4-dihydroquinazolin-2(1H)-one]: the “inhibitory rate (%)” value turned out to be 113%.

With `O=C1Nc2ccccc2CN1c1cc(OCc2ncccc2F)ccc1C1CC1` [Example 213, 3-(2-cyclopropyl-5-((3-fluoropyridin-2-yl)methoxy)phenyl)-3,4-dihydroquinazolin-2(1H)-one], the “inhibitory rate (%)” value is 114%.

For the molecule `O=C1Nc2ccccc2CN1c1cc(OCc2ncccc2F)ccc1C(F)(F)F` [Example 214, 3-(5-((3-fluoropyridin-2-yl)methoxy)-2-(trifluoromethyl)phenyl)-3,4-dihydroquinazolin-2(1H)-one], the “inhibitory rate (%)” value is listed as 110%.
